Results taken from BindingDB's records for doi:10.1074/jbc.M413155200 (Vertex Pharmaceuticals, 2005).

Target: Serine/threonine-protein kinase pim-1 (Homo sapiens, UniProt P11309)
Assay: Kinase Assay
Conditions: pH 7.6; 30 °C

Sequence of Serine/threonine-protein kinase pim-1 (P11309 whole entry): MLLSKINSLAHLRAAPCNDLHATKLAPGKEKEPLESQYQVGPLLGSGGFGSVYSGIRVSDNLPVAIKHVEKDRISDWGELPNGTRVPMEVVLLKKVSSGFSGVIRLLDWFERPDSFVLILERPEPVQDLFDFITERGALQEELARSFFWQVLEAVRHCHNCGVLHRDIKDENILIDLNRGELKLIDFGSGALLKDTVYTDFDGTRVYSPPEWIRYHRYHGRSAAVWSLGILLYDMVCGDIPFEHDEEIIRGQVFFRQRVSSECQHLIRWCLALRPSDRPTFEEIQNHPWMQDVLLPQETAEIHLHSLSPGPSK

`COC(=O)[C@@]1(O)C[C@H]2O[C@]1(C)n1c3ccccc3c3c4c(c5c6ccccc6n2c5c31)C(=O)NC4` was tested, and the IC50 was 0.15 µM.
